This note sets out measurements from US20040042984A1, “Skin whitening composition containing arbutin and glucosidase as active ingredients” (priority 2001, published 2004).

Series [1] is described as follows: Stability of the mixed composition by decoloration (absorbance at 400 nm). Particulars: for Absorbance (400 nm): 100 mM, reacted 37° C. 10 minutes pH 5.0, TCA, supernatant incubated at 37° C. for 24 hours; for Discoloration rate (% of decoloring of hydroquinone solution): hydroquinone solution regarded as 100%, 37° C. for 24 hours. It counts as physicochemical. Here is the method:
The absorbency was measured at 400 nm and the degree of discoloring can be expressed in the ratio of the extent of arbutin solution to that of hydroquinone solution.
The formula stability of arbutin-glucosidase mixed formula compared with the hydroquinone only formula was examined by the decoloration. 100 mM arbutin and each 1, 10 and 20 unit/ml glucosidase were reacted in 1 ml of sodium acetate buffer (pH 5.0) at 37° C. for 10 minutes. The reaction was terminated by cooling down in the ice water. Then its mixed 1 ml of cold 20% Trichloroacetic acid (TCA) was added to remove glucosidase activity. The mixture was centrifuged at 12000 rpm. The supernatant solution incubated at 37° C. for 24 hours and the absorbency was measured at […]. The degree of decoloration of hydroquinone was regarded as 100% and the ratio of other samples compared to hydroquinone were calculated. As the control, 100 mM arbutin and 100 mM hydroquinone solution (sigma, USA) was used.

Series [2] deals with skin of the lower part of the volunteers' arms. Put plainly: Occlusive patch test for primary skin irritation. The format is in vivo, human. Details: Response 24 h / Response 48 h: key to the marks not given beside the values. The settings on record: for skin irritation (in words): occlusive patch test. The method, then:
In another preferred embodiments of this invention, the safety of this composition was tested by skin-irritation against the occlusive patch applied to healthy-adult volunteers. […] It is interpreted that the skin is more adaptable to the gradually increasing amount of irritant than the high concentration of irritant at a time.
The occlusive patch test was performed to examine skin irritation of the mixture of arbutin and glucosidase by 30 healthy adults. The test patches containing the solution of arbutin and glucosidase of preferred embodiment 2 were applied to the lower part of the volunteers' arms. After 24 hours, the patches were removed. The status of skin was observed from 30 minutes to 48 hours after removing the patches, and the degree of irritation has been classified as described in Table 3a.

For the compound `OC[C@H]1O[C@@H](Oc2ccc(O)cc2)[C@H](O)[C@@H](O)[C@@H]1O` [Arbutin solution, Arbutin], in series [1], the “Absorbance (400 nm)” value was found to be 0.005 and the “Discoloration rate (% of decoloring of hydroquinone solution)” value is listed as 1.40%.

Turning to `Oc1ccc(O)cc1` [Hydroquinone solution, Hydroquinone], in series [2], the “skin irritation (in words)” value is listed as “very strong skin irritation”. In addition, the “skin irritation (in words)” value in series [2] (listed as hydroquinone composition) is listed as “showed the positive irritation”. In addition, the “Response 24 h” value in series [2] (occlusive patch, 30 healthy adults, 24 h) is “+++”. Moreover, the “Response 48 h” value in series [2] (occlusive patch, 30 healthy adults, 48 h) is given as “+++”. Further, in series [1], the “Absorbance (400 nm)” value is 0.356 and the “Discoloration rate (% of decoloring of hydroquinone solution)” value is reported as 100%.
